What was measured:
[1] = molecular target: T1, human S1P1 receptor (Homo sapiens, UniProt P21453); assay: GTP γ35S binding assay for S1P1 activity; type: biochemical; settings: membranes of cells stably expressing S1P1 receptor, 30 min at 25° C.
T1 construct: expressed in transfected cells; membranes used
Procedure: Compounds were tested for S1P1 activity using the GTP γ^35S binding assay. These compounds may be assessed for their ability to activate or block activation of the human S1P1 receptor in cells stably expressing the S1P1 receptor.
GTP γ^35S binding was measured in the medium containing (mM) HEPES 25, pH 7.4, MgCl2 10, NaCl 100, dithitothreitol 0.5, digitonin 0.003%, 0.2 nM GTP γ^35S, and 5 μg membrane protein in a volume of 150 μl. Test compounds were included in the concentration range from 0.08 to 5,000 nM unless indicated otherwise. Membranes were incubated with 100 μM 5′-adenylylimmidodiphosphate for 30 min, and subsequently with 10 μM GDP for 10 min on ice. Drug solutions and membrane were mixed, and then reactions were initiated by adding GTP γ^35S and continued for 30 min at 25° C. Reaction mixtures were filtered over Whatman GF/B filters under vacuum, and washed three times with 3 mL of ice-cold buffer (HEPES 25, pH 7.4, MgCl2 10 and NaCl 100). Filters were dried and mixed with scintillant, and counted for ^35S activity using a β-counter. Agonist-induced GTP γ^35S binding was obtained by subtracting that in the absence of agonist. Binding data were analyzed using a non-linear regression method. In case of antagonist assay, the reaction mixture contained 10 nM S1P in the presence of test antagonist at concentrations ranging from 0.08 to 5000 nM. Activity potency: S1P1 receptor from GTP γ^35S: nM, (EC50),

[2] = system: blood lymphocytes; assay: Lymphopenia assay in mice; type: in vivo; settings: female C57BL6 mice, 10 mg/Kg subcutaneously, after 24 hours
Procedure: Test drugs are prepared in a solution containing 3% (w/v) 2-hydroxy propyl β-cyclodextrin (HPBCD) and 1% DMSO to a final concentration of 1 mg/ml, and subcutaneously injected to female C57BL6 mice (CHARLES RIVERS) weighing 20-25 g at the dose of 10 mg/Kg. Blood samples are obtained by puncturing the submandibular skin with a Goldenrod animal lancet at 24, 48, 72, and 96 hrs post drug application. Blood is collected into microvettes (SARSTEDT) containing EDTA tripotassium salt. Lymphocytes in blood samples are counted using a HEMAVET Multispecies Hematology System, HEMAVET HV950FS (Drew Scientific Inc.).
(Hale, J. et al Bioorg. & Med. Chem. Lett. 14 (2004) 3351).
A lymphopenia assay in mice; as previously described, was employed to measure the in vivo blood lymphocyte depletion after dosing with (2S)-2-amino-3-oxo-3-({4-[(5-phenylpentyl)oxy]-3-(2-thienyl)phenyl}amino)propyl dihydrogen phosphate. This S1P1 agonist is useful for S1P-related diseases and exemplified by the lymphopenia in vivo response. […] Lymphocytes in blood samples were counted using a HEMAVET Multispecies Hematology System, HEMAVET HV950FS (Drew Scientific Inc.). […]

T1 sequence (P21453 whole entry): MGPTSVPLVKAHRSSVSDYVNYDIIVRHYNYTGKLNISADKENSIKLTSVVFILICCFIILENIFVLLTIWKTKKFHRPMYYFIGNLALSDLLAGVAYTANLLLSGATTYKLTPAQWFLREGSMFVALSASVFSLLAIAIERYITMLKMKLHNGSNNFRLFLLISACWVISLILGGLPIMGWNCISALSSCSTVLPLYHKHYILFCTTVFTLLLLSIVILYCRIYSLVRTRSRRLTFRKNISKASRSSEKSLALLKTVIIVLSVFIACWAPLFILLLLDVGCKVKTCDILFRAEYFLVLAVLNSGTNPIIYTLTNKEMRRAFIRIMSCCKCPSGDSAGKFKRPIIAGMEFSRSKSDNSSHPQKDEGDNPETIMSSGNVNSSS

Compound	EC50 [1] [nM]	lymphocyte count (number of lymphocytes 10^3/μL blood) [2]
C[C@@](N)(COP(=O)(O)O)C(=O)Nc1ccc(OCCCCCc2ccccc2)c(-c2cccs2)c1 [Compound 1, (2R)-2-amino-2-methyl-3-oxo-3-({4-[(5-phenylpentyl)oxy]-3-(2-thienyl)phenyl}amino)propyl dihydrogen phosphate]	96	–
C[C@](N)(COP(=O)(O)O)C(=O)Nc1ccc(OCCCCCc2ccccc2)c(-c2cccs2)c1 [Compound 2, (2S)-2-amino-2-methyl-3-oxo-3-({4-[(5-phenylpentyl)oxy]-3-(2-thienyl)phenyl}amino)propyl dihydrogen phosphate]	34	–
N[C@@H](COP(=O)(O)O)C(=O)Nc1ccc(OCCCCCc2ccccc2)c(-c2cccs2)c1 [Compound 4, (2S)-2-amino-3-oxo-3-({4-[(5-phenylpentyl)oxy]-3-(2-thienyl)phenyl}amino)propyl dihydrogen phosphate]	3	< 1 10^3/μL blood
(2S)-2-amino-3-({3-(2-furyl)-4-[(5-phenylpentyl)oxy]phenyl}amino)-3-oxopropyl dihydrogen phosphate [Compound 3]	8	–

From US8653270B2, “Compounds as receptor modulators with therapeutic utility” (Allergan, Inc., priority 2010, dated 2014)
